From patent US8962580B2, “Chemical modifications of monomers and oligonucleotides with cycloaddition” (Alnylam Pharmaceuticals, Inc., priority 2008, dated 2015)
Where two headings read alike, the source gives them in different places. {L125} = ligand L125 of the publication, structure not given; d = 2'-deoxy (DNA); m = 2'-O-methyl; r = 2'-OH (RNA)

System: firefly luciferase gene
Experiment: Dual-luciferase assay for RNA interfering evaluation
Assay type: cell-based
Conditions: for IC50: read-out: IC 50 Values
Experimental: 1. Dual-Luciferase Assay for RNA Interfering Evaluation
Modified RNAs obtained by solid-phase synthesis and click reactions were evaluated in RNA interfering in dual-luciferase assays. Duplexes were prepared by heating at 95° C. for 2 min and cooling to room temperature for 2 hours in 1X Phosphate buffered saline. (Table 12-14).
The ability of modified siRNAs to suppress gene expression was studied by a dual-luciferase assay using a pGL4 vector (Promega), which contained the Renilla and firefly luciferase genes. The siRNA sequences were designed to target the firefly luciferase gene. Stably transfected HeLa cells were then transfected with the indicated amounts of siRNAs, and the signals of firefly luciferase were normalized to those of renilla luciferase. HeLa SS6 cells were stably transfected with plasmids encoding firefly (target) and Renilla (control) luciferases.
RNA interference methods: Hela cells were grown at 37° C., 5% CO2 in Dulbecco's modified Eagles's medium (DMEM, GIBCO) supplemented with 10% fetal bovine serum (FBS) and 1% antibiotic. The cells were maintained in the exponential growth phase. The cells were then plated in 96-well plates (0.1 mL medium per well) to reach about 90% confluence at transfection. Transfection was allowed to proceed for 24 hr at 37° C. and on day 2 the culture medium was changed to OPTIMEM 1, a reduced serum media (GIBCO). Two luciferase plasmids, Renilla luciferase (pRL-CMV) and firefly luciferase (pGL3) from Promega, were used as control and reporter, respectively. Transfection of siRNAs was carried out with Lipofectamine 2000 (Invitrogen) as described by the manufacturer for adherent cell lines. The final volume was 150 uL per well. On day 2 cells are transfected with, firefly luciferase targeting, siRNA of varying concentrations ranging from 2 pM to 8 nM mediated by Lipofectamine 2000 reagent (Invitrogen). After 24 h, cells were analyzed for both firefly and renilla luciferase expression using a plate luminometer with a delay time of 2 s and an integrate time of 10 s. (VICTOR2, PerkinElmer, Boston, Mass.) and the Dual-Glo Luciferase Assay kit (Promega), FIG. 24. Firefly/renilla luciferase expression ratios were used to determine percent gene silencing relative to untreated (no siRNA) controls. Values generated represent the mean of triplicates.
The screening process began with a primary screen where all the compounds were screened against the parent unmodified duplex as a comparison. […] The final set of compounds was compared to one of our best modifications AD3202 and it can be seen that these compounds match up to AD 3202 in potency, however the exact mechanism by which the Uda modification contributes to improved activity is to be determined through further studies.
Dual HeLa (HeLa cells transfected with PGL4 plasmid for luciferase expression)
Tissue culture medium, trypsin and Lipofectamine-2000—purchased from Invitrogen (Carlsbad, Calif.).
DMEM supplemented with 10% fetal bovine serum, 1% antibiotic solution.
siRNA treatment was performed using Opti-MEM (Invitrogen) containing 1 mg/ml Lipofectamine2000
DMEM without phenol red, Promega Dual Glo Luciferase Assay kit, 0.25% Trypsin (Invitrogen).

[1] = Table 12 (Part I), stably transfected HeLa cells, Lipofectamine 2000, 24 h, firefly/renilla luciferase ratio
[2] = Table 13 (Part II), stably transfected HeLa cells, Lipofectamine 2000, 24 h, firefly/renilla luciferase ratio

Substance | IC50 [1] | IC50 [2] | further results
AD-20203: siRNA duplex: sense 37077 CUUACGCUGAGUACUUCGAdTdT(T31y), antisense 1001; 3′ (T31y) (sense CUUACGCUGAGUACUUCGATT; antisense UCGAAGUACUCAGCGUAAGTT; 3' (T31y) on sense, chemistry not fully specified) | 1.41 nM | – | –
AD-20158: siRNA duplex: sense 33033.1 C(Uda)UACGCUGAGUACUUCGAdT(Uda2p), antisense 1001; U2-->Uda, Uda2p-3′end (sense CUUACGCUGAGUACUUCGAT; antisense UCGAAGUACUCAGCGUAAGTT; U2 Uda, Uda2p 3' end on sense, chemistry not fully specified) | – | 1.5 nM | Fold Increase in activity as compared to parent (Table 13 (Part II), parent AD-1000): 2 fold
AD-20157: siRNA duplex: sense 33032.1 CUUACGCUGAG(Uda)ACUUCGAdT(Uda2p), antisense 1001; U12-->Uda, Uda2p-3′end (sense CUUACGCUGAGUACUUCGAT; antisense UCGAAGUACUCAGCGUAAGTT; U12 Uda, Uda2p 3' end on sense, chemistry not fully specified) | – | – | IC 50 Values (nM) [2]: NA—out
AD-1000: parent unmodified siRNA duplex: sense 1000 CUUACGCUGAGUACUUCGAdTdT, antisense 1001 UCGAAGUACUCAGCGUAAGdTdT (sense CUUACGCUGAGUACUUCGATT; antisense UCGAAGUACUCAGCGUAAGTT; sugars from the 5' end r19 d2, backbone not given here) [reference compound] | – | 0.38 nM | IC50 (Table 14 (Part III), stably transfected HeLa cells, Lipofectamine 2000, 24 h, firefly/renilla luciferase ratio): 0.326 nM; IC50 (Table 15 (Part IV), selected potent duplexes, secondary screen / head to head comparison): 0.242 nM
AD-20321: siRNA duplex: sense 38103.1 AAcGcuGGGcGuuAAucAAdTdTL125 (2′OMe-all Py and 3′ L125), antisense 24599 UUGAUuAACGCCcAGCGUUdTsdT (sense AACGCUGGGCGUUAAUCAATT; antisense UUGAUUAACGCCCAGCGUUTT; sense: DNA at T, 2'-O-methyl at CU, RNA at AG, 3' {L125}, backbone not given here; antisense: sugars from the 5' end rrrrrmrrrrrrmrrrrrrdd, backbone not given here) | – | – | IC 50 Values (nM) [1]: out of range
AD-20201: siRNA duplex: sense 36862 CUUACGCUGAGUACUUCGAdTdTL125, antisense 1001; 3′ L125 (sense CUUACGCUGAGUACUUCGATT; antisense UCGAAGUACUCAGCGUAAGTT; 3' L125 on sense, chemistry not fully specified) | 0.922 nM | – | –
AD-20202: siRNA duplex: sense 37075 CUUACGCUGAGUACUUCGAdTdT(T1y), antisense 1001; 3′ (Tly) (sense CUUACGCUGAGUACUUCGATTT; antisense UCGAAGUACUCAGCGUAAGTT; 3' (Tly) on sense, chemistry not fully specified) | 1.12 nM | – | –
AD-20156: siRNA duplex: sense 33031.1 CUUACGCUGAGUACUUCGAdT(Uda2p), antisense 1001; Uda2p-3′end (sense CUUACGCUGAGUACUUCGAT; antisense UCGAAGUACUCAGCGUAAGTT; Uda2p 3' end on sense, chemistry not fully specified) | – | 1.18 nM | –
